Experimental data from patent US10822319B2, “Crystal of DPP-IV long-acting inhibitor and salt” (priority 2016, dated 2020).
Where two headings read alike, the source gives them in different places. Blank lines part the entries; values can stand above or below the compound they belong to.

Assays:
[1] = Stability test of the crystal of the compound represented by Formula I; format: physicochemical
Description: Samples were taken on day 5 or day 10 and tested, respectively, and the results were compared with the initial results.

[2] = Pharmacokinetics in Beagle dogs; format: in vivo; settings: plasma, 2 mg/kg (in free form); for MRT last: read-out: MRT(0−t); for bioavailability: relative to the compound represented by Formula I, read-out: Relative F %
Procedure: Male Beagle dogs were fasted for about 12 h prior to administration and had free access to water. The dogs were also fasted for 4 hours after administration. Blood samples (0.8 mL) were taken from the forelimb vein of the subject Beagle dogs at 0.25, 0.5, 1, 2, 4, 6, 8, 10, 24, 30, 48, and 72 h after administration. The samples were then placed in EDTA-K2 centrifuge tubes, stored at 4° C., and centrifuged for 10 min at a speed of 4000 rpm at 4° C. within 0.5 h after blood collection to separate plasma. The plasma was stored at […] within 1 h after collecting all the plasma.
300 μL of a solution of an internal standard substance in methanol was added to 50 μL of the plasma sample to be tested and a standard curve sample, respectively. The resulting mixture was mixed uniformly by shaking for 5 min, and centrifuged for 10 min at a speed of 13000 rpm. Then 80 μL of supernatant was taken, and 5 μL of the supernatant was pipetted for LC/MS/MS determination, and the chromatogram was recorded.

[3] = High Humidity (RH92.5%, 25° C.), Day 5
[4] = High Humidity (RH92.5%, 25° C.), Day 10
[5] = Light Irradiation (6000 lux), Day 5
[6] = Light Irradiation (6000 lux), Day 10
[7] = male, Beagle, dog, po, 2 mg/kg, crystalline form
[8] = male Beagle dogs, crystalline form
[9] = male, Beagle, dog, oral, 2 mg/kg, crystalline form

Content (%) ([1]; 40° C., Day 5): 99.6%
Total impurity (%) ([1]; 40° C., Day 5): 0.31%
Content (%) ([1]; 40° C., Day 10): 99.6%
Total impurity (%) ([1]; 40° C., Day 10): 0.37%
Content (%) ([1]; 60° C., Day 5): 100.2%
Total impurity (%) ([1]; 60° C., Day 5): 0.30%
Content (%) ([1]; 60° C., Day 10): 99.4%
Total impurity (%) ([1]; 60° C., Day 10): 0.33%
Content (%) ([1]; Day 0): 99.1%
Total impurity (%) ([1]; Day 0): 0.39%
Content (%) [1, 3]: 100.3%
Total impurity (%) [1, 3]: 0.27%
Content (%) [1, 4]: 99.9%
Total impurity (%) [1, 4]: 0.32%
Content (%) [1, 5]: 99.5%
Total impurity (%) [1, 5]: 0.33%
Content (%) [1, 6]: 99.3%
Total impurity (%) [1, 6]: 0.44%
Appearance ([1]; all conditions and days (Day 0, 40° C., 60° C., high humidity, light irradiation)): Off-white powdered solid
SMILES: CS(=O)(=O)c1ccc2c(c1)CN([C@H]1CO[C@H](c3cc(F)ccc3F)[C@@H](N)C1)C2 [(2R,3S,5R)-5-(5-methanesulfonylisoindolin-2-yl)-2-(2,5-difluorophenyl)tetrahydro-2H-pyran-3-amine]

AUC(0-inf) [2, 7]: 15.8 µg·h/mL
AUC(0-t) [2, 7]: 15.2 µg·h/mL
half-life [2, 7]: 16.4 h
Cmax ([2]; male, Beagle, dog, po, 2 mg/kg, crystalline form, read-out: Cmax): 0.926 µg/mL
MRT last [2, 7]: 20.6 h
Tmax ([2]; male, Beagle, dog, po, 2 mg/kg, crystalline form, read-out: Tmax): 6 h
bioavailability ([2]; male, Beagle, dog, po, 2 mg/kg): 100%
SMILES: CS(=O)(=O)c1ccc2c(c1)CN([C@H]1CO[C@H](c3cc(F)ccc3F)[C@@H](N)C1)C2 [The compound represented by Formula I, (2R,3S,5R)-5-(5-methanesulfonylisoindolin-2-yl)-2-(2,5-difluorophenyl)tetrahydro-2H-pyran-3-amine]

AUC(0−t) [2, 8]: 22.746 µg·h/mL
AUC(0−∞) [2, 8]: 23.508 µg·h/mL
Cmax [2, 8]: 1.746 µg/mL
MRT(0−t) [2, 8]: 17.9 h
Tmax [2, 8]: 0.67 h
t1/2 [2, 8]: 16.9 h
SMILES: CS(=O)(=O)c1ccc2c(c1)CN([C@H]1CO[C@H](c3cc(F)ccc3F)[C@@H](N)C1)C2 [The phosphate of the compound represented by Formula I] [Phosphate of (2R,3S,5R)-5-(5-methanesulfonylisoindolin-2-yl)-2-(2,5-difluorophenyl)tetrahydro-2H-pyran-3-amine]

AUC(0-inf) [2, 9]: 20.3 µg·h/mL
AUC(0-t) [2, 9]: 19.5 µg·h/mL
half-life [2, 9]: 16.6 h
Cmax ([2]; male, Beagle, dog, oral, 2 mg/kg, crystalline form, read-out: Cmax): 1.22 µg/mL
MRT last [2, 9]: 20.3 h
Tmax ([2]; male, Beagle, dog, oral, 2 mg/kg, crystalline form, read-out: Tmax): 0.75 h
bioavailability ([2]; male, Beagle, dog, oral, 2 mg/kg): 152%
SMILES: CS(=O)(=O)c1ccc2c(c1)CN([C@H]1CO[C@H](c3cc(F)ccc3F)[C@@H](N)C1)C2 [fumarate of (2R,3S,5R)-5-(5-methanesulfonylisoindolin-2-yl)-2-(2,5-difluorophenyl)tetrahydro-2H-pyran-3-amine]
